Structures can show the parent of a compound that is named as a salt.
Tests used:
[1] = target: trypsin activity in feces; assay: Fecal Trypsin Activity (Specific Fecal Enzyme Method); format: biochemical; details: pooled infant fecal suspension, pH 8.2, 25° C.; read-out: IC50 Specific Fecal Enzyme Methods Trypsin
Excerpt: (§1) The following is a general description of a method for obtaining a sample of feces suitable for use in Fecal Protease Methods. However, one skilled in the art will be able to adapt the method to obtain appropriate samples of feces suitable for use in any of the Specific Fecal Protease Methods listed below (i.e., lipase, urease, and amylase) without undue experimentation.
(§2) Pooled infant feces (at least five different samples) are collected in a manner to keep them free of urine and contamination and mixed with water to obtain a weight by weight (w/w) mixture (e.g., 1:50 w/w). This mixture is then mixed thoroughly to obtain a homogeneous suspension by homogenization or sonication. […] (Also, to ensure complete linearity the final absorbance should never exceed 1.5 OD405 units). If the activity of the pooled infant feces is outside this range, it is not possible to accurately determine IC50 values for putative protease inhibitors. However, the range of enzyme activity may be adjusted by increasing or decreasing the dilution factor accordingly for each enzyme. If this is not possible, a different group of subjects should be used to obtain the sample pool.
To test the efficacy of protease inhibitors against the trypsin activity in feces, inhibitor and trypsin buffer (50 mM TRIS, 20 mM CaCl2, pH 8.2) are added in a cuvette to obtain a final volume of 0.8 mL. To this mixture, 0.1 mL of substrate (3 mM Cbz-arginine-p-nitroanilide) is added to the cuvette. The cuvette is mixed by inversion and incubated at 25° C. for 5 minutes. A volume of 0.1 mL of fecal suspension is added to the cuvette, mixed and the absorbance at 405 nm minus the absorbance at 490 nm are measured over 5 minutes at 25° C. (The absorbance at 490 nm is a correction factor for the background absorbance due to the particulate fecal material, i.e., “interference”). The rate of substrate cleavage in the presence of inhibitor (vi) is the slope of a plot relating the excess absorbance (i.e., the absorbance at 405 nm minus the absorbance at 490 nm) versus time. The same procedure is repeated without the putative inhibitor. The rate of substrate cleavage in the absence of inhibitor (v) is the slope of a plot relating the excess absorbance versus time. The rates, vi and v, and the inhibitor concentration [I] are used to calculate IC50 according to the equation expressed above.

LAP activity in feces = assay: Fecal LAP Activity (Specific Fecal Enzyme Method); format: biochemical; details: pooled infant fecal suspension, pH 7.2, 25° C.; read-out: IC50 Specific Fecal Enzyme Methods LAP
Excerpt: as §1, §2
To test the efficacy of protease inhibitors against LAP activity in feces, inhibitor and LAP buffer (50 mM sodium phosphate, pH 7.2) are added in a cuvette to obtain a final volume of 0.95 mL. To this mixture, 0.03 mL of substrate (6 mM L-Leucine-p-nitroanilide) is added to the cuvette. The cuvette is mixed by inversion and incubated at 25° C. for 5 minutes. A volume of 0.02 mL of fecal suspension is added to the cuvette, mixed and the absorbance at 405 nm minus the absorbance at 490 nm measured over 5 minutes at 25° C. The rate of substrate cleavage in the presence of inhibitor (vi) is the slope of a plot relating the excess absorbance (i.e., the absorbance at 405 nm minus the absorbance at 490 nm) versus time. The same procedure is repeated without the putative inhibitor. The rate of substrate cleavage in the absence of inhibitor (v) is the slope of a plot relating the excess absorbance versus time. The rates, vi and v, and the inhibitor concentration [I] are used to calculate IC50 according to the equation expressed above.

[2] = target: chymotrypsin activity in feces; assay: Fecal Chymotrypsin Activity (Specific Fecal Enzyme Method); format: biochemical; details: pooled infant fecal suspension, pH 7.6, 25° C.; read-out: IC50 Specific Fecal Enzyme Methods Chymotryp.
Excerpt: The following is a general description of a method for obtaining a sample of feces suitable for use in Fecal Protease Methods. However, one skilled in the art will be able to adapt the method to obtain appropriate samples of feces suitable for use in any of the Specific Fecal Protease Methods listed below (i.e., lipase, urease, and amylase) without undue experimentation. […] Pooled infant feces (at least five different samples) are collected in a manner to keep them free of urine and contamination and mixed with water to obtain a weight by weight (w/w) mixture (e.g., 1:50 w/w). This mixture is then mixed thoroughly to obtain a homogeneous suspension by homogenization or sonication. […] (Also, to ensure complete linearity the final absorbance should never exceed 1.5 OD405 units). If the activity of the pooled infant feces is outside this range, it is not possible to accurately determine IC50 values for putative protease inhibitors. However, the range of enzyme activity may be adjusted by increasing or decreasing the dilution factor accordingly for each enzyme. If this is not possible, a different group of subjects should be used to obtain the sample pool. […] The cuvette is mixed by inversion and incubated at 25° C. for 5 minutes. […] The rate of substrate cleavage in the presence of inhibitor (vi) is the slope of a plot relating the excess absorbance (i.e., the absorbance at 405 nm minus the absorbance at 490 nm) versus time. The same procedure is repeated without the putative inhibitor. The rate of substrate cleavage in the absence of inhibitor (v) is the slope of a plot relating the excess absorbance versus time. The rates, vi and v, and the inhibitor concentration [I] are used to calculate IC50 according to the equation expressed above.

[3] = target: protease activity in feces; assay: General Fecal Enzymes Method (casein-resorufin cleavage); format: biochemical, infant; details: fecal suspension, casein-resorufin substrate, pH 7.8, 37° C. for 60 minutes
Excerpt: as §2
The general method described above for obtaining a sample of feces suitable for use in Specific Fecal Enzyme Methods can be easily adapted by one skilled in the art to obtain appropriate samples of feces suitable for use in the General Fecal Enzymes Method listed below without undue experimentation.
To test the efficacy of protease inhibitors against the protease activity in feces, 50 μL of inhibitor and 50 μL of fecal suspension are added to a 1.5 mL microcentrifuge tube. The microcentrifuge tube is mixed by inversion and incubated at 25° C. for 45 minutes. Then, 50 μL of protease buffer (200 mM TRIS buffer containing 20 mM CaCl2, pH 7.8) is added to the microcentrifuge tube. The microcentrifuge tube is again mixed by inversion and incubated at 25° C. for 45 minutes. […] The microcentrifuge tube is again mixed by inversion and incubated at 37° C. for 60 minutes for the substrate cleavage reaction to take place. Then, 480 μL of trichloroacetic acid (5% w/v) is added to stop the reaction and precipitate any unreacted casein-resorufin. The microcentrifuge tube is mixed by inversion incubated at 37° C. for 15 minutes. […] Then, 400 μL of the supernatant is added to 600 μL of assay buffer (0.5 M TRIS, pH 8.8) in a cuvette. […] The same procedure is repeated without the putative inhibitor. […] Before the start of the reaction, A and Ai are nearly zero. […] The rates, vi and v, and the inhibitor concentration [I] are used to calculate IC50 according to the equation expressed above.

O=C(O)CN(CCN(CC(=O)O)CC(=O)O)CC(=O)O [EDTA, ethylenediamine tetraacetic acid]
IC50 [1]: 100 µM | IC50 (LAP activity in feces): > 3000 µM | IC50 [2]: 100 µM

NCCc1ccc(S(=O)(=O)F)cc1 [4-(2-aminoethyl)-benzenesulfonylfluoride hydrochloride]
IC50 [3]: 217 µM

Source: patent US6703536B2, “Disposable absorbent article having a skin care composition containing an enzyme inhibitor” (The Procter & Gamble Company, priority 1998, dated 2004)
